Reference: article PMC6143478, “Lipophilic activated ester prodrug approach for drug delivery to the intestinal lymphatic system” (Journal of Controlled Release, 2018)
Where two headings read alike, the source gives them in different places.

Columns and labels:
[1] = Prodrug conversion assay in postprandial rat lymph; assay type: in vitro ADME; details: CM-rich postprandial rat lymph, ex vivo; relative to rat plasma
Description: The prodrugs were tested for their stability and conversion into their corresponding active drug using fasted state simulated intestinal fluid (FaSSIF) with added esterase enzyme activity (20 IU/mL), rat plasma, and postprandial rat lymph. The FaSSIF was prepared as previously described in the literature. The medium was pre-heated to 37 °C prior to the assay for 5 min. The experiment was initiated by spiking stock solutions of prodrugs to give a final concentration of 10 μM of the prodrugs in the medium. When the stability of the artificial emulsion-associated prodrugs was tested in plasma, the association of compounds with artificial emulsion was performed prior to stability experiments and the concentrations of the compounds in the associated emulsion were measured. The emulsion was then spiked to give a concentration of 10 μM of the prodrugs in plasma. The reaction mixtures were incubated at 37 °C and shaken at 200 rpm on a temperature-controlled orbital shaker (Thermo Scientific MaxQ4000, Waltham, MA, USA) for 4 h. Samples were withdrawn at pre-determined time points, and the reaction was terminated by addition of acetonitrile. The samples were then subjected to sample preparation and analysis as described below. […] Half-life of active drug release (t1/2) was calculated by the following equation: t1/2 = −0.693/k. […]

[2] = Prodrug conversion assay in rat plasma; assay type: in vitro ADME
Description: The prodrugs were tested for their stability and conversion into their corresponding active drug using fasted state simulated intestinal fluid (FaSSIF) with added esterase enzyme activity (20 IU/mL), rat plasma, and postprandial rat lymph. The FaSSIF was prepared as previously described in the literature. The medium was pre-heated to 37 °C prior to the assay for 5 min. The experiment was initiated by spiking stock solutions of prodrugs to give a final concentration of 10 μM of the prodrugs in the medium. When the stability of the artificial emulsion-associated prodrugs was tested in plasma, the association of compounds with artificial emulsion was performed prior to stability experiments and the concentrations of the compounds in the associated emulsion were measured. The emulsion was then spiked to give a concentration of 10 μM of the prodrugs in plasma. The reaction mixtures were incubated at 37 °C and shaken at 200 rpm on a temperature-controlled orbital shaker (Thermo Scientific MaxQ4000, Waltham, MA, USA) for 4 h. Samples were withdrawn at pre-determined time points, and the reaction was terminated by addition of acetonitrile. The samples were then subjected to sample preparation and analysis as described below. The natural log percentage of the prodrug concentration was plotted against incubation time, and the slope (k) was obtained from the plot. Half-life of active drug release (t1/2) was calculated by the following equation: t1/2 = −0.693/k. All experiments were conducted in triplicate.

[3] = Biodistribution to mesenteric lymph nodes (MLN) and lymph following oral administration in rats; assay type: in vivo; details: dose equivalent to 10 mg/kg BEX, rat; for Kp: male, Sprague Dawley, intact prodrug
Description: The protocols for pharmacokinetic and biodistribution experiments in this study were reviewed and approved by the University of Nottingham Ethical Review Committee in accordance with the Animals [Scientific Procedures] Act 1986. Male Sprague Dawley rats (Charles River Laboratories, UK) weighing 350–380 g were used. The animals were housed in the Bio Support Unit, University of Nottingham. Continuous lymph collection was performed according to a protocol approved by the Institutional Animal Care and Use Committee at Rutgers, The State University of New Jersey. Male Sprague Dawley rats (Envigo, Inc., NJ, USA) weighing 300–350 g were used for the continuous lymph collection. Animals were allowed free access to food and water and were acclimatised for at least 6 days prior to any procedures at both institutions in a controlled-temperature environment with 12 h light/dark cycles.
Formulations were prepared as described in the above pharmacokinetic study and were delivered by an oral gavage. Animals were euthanised at pre-determined time points. Blood was collected from the posterior vena cava and lymph samples were taken from the mesenteric lymph duct. MLNs were dissected and collected as previously described. The MLNs were isolated from surrounding tissue with care not to compromise the integrity of the lymph nodes. The MLNs were homogenised (POLYTRON® PT 10–35 GT, Kinematica AG, Luzern, Switzerland) with 10 mg/mL NaF in water (1,2, w/v) on an ice bath prior to sample preparation for HPLC analysis.
A combination of protein precipitation and liquid-liquid extraction was applied to samples prior to HPLC injection. To 100 μL sample, 300 μL of acetonitrile was added for protein precipitation and then 300 μL of pH modifier was added when necessary (Supplementary Material Table S2). […] The organic layer was separated and evaporated under N2 gas. Reconstitution solvent (100 μL) was used as detailed in Supplementary Material Table S2 and 40 μL was injected into the HPLC-UV system. […] Therefore, storage and preparation of all samples were performed within the time frame and conditions of confirmed stability.
The HPLC-UV system consisting of a separation module (Waters Alliance 2695) equipped with a UV detector (Waters 996) was used for analysis. Samples in the autosampler were maintained at 4 °C and the column at 40 °C. The stationary and mobile phases were used as specified in Supplementary Material Table S2. BEX and its prodrugs were detected at 259 nm and RA and its prodrugs at 357 nm.

In the case of C=C(c1ccc(C(=O)OCC)cc1)c1cc2c(cc1C)C(C)(C)CCC2(C)C [prodrug 2], the “half-life of active drug release in postprandial lymph” value [1] is reported as “prolonged”, the “conversion of emulsion-associated form of prodrug in rat plasma” value ([2]; prodrug incorporated into Intralipid lipid particles, 10 μM, relative to free form) is reported as “delayed conversion” and the half-life at 10 μM ([2]; rat, plasma, in vitro, 37 °C, free form, read-out: half-life of active drug release in rat plasma) is reported as 20 min. The “concentrations of BEX in intestinal lymphatics (MLNs, lymph) relative to plasma” value ([3]; BEX analyte, in words) was “comparable between the three matrices”, the Kp ([3]; mesenteric lymph / plasma, read-out: concentration of prodrug in lymph compared to plasma) was 41 and the Kp ([3]; mesenteric lymph nodes (MLN) / plasma, read-out: concentration of prodrug in MLNs compared to plasma) was 6.
